According to the supplement of paper PMC10307832:

Experiments:
Assay in all cases: relative viability (nuclei count vs DMSO), 5 days (fraction); higher = more cells survive
HCC-44 = tested on: HCC-44
In short: (§1)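 One day after seeding in 1536-well plates, lung cancer cell lines were dosed by pin tool. Dosing was either single-drug or a fixed anchor-drug dose plus five library-drug doses (not always all listed) in √10 steps. After 5 days, nuclei were stained in one fix-and-stain step and counted on 4× images, and relative viability is the nuclei count of treated wells over that of vehicle wells, given as the median of duplicate plates.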

NCI-H1651 = tested on: NCI-H1651
In short: as §1

PC-3 [JPC-3] = tested on: PC-3 [JPC-3]
In short: as §1

LOU-NH91 = tested on: LOU-NH91
In short: as §1

SK-LU-1 = tested on: SK-LU-1
In short: as §1

NCI-H1944 = tested on: NCI-H1944
In short: as §1

NCI-H1437 = tested on: NCI-H1437
In short: as §1

NCI-H1734 = tested on: NCI-H1734
In short: as §1

NCI-H2170 = tested on: NCI-H2170
In short: as §1

201T = tested on: 201T
In short: as §1

NCI-H322M = tested on: NCI-H322M
In short: as §1

NCI-H596 = tested on: NCI-H596
In short: as §1

LK-2 = tested on: LK-2
In short: as §1

NCI-H2228 = tested on: NCI-H2228
In short: as §1

PC-14 = tested on: PC-14
In short: as §1

HCC-78 = tested on: HCC-78
In short: as §1

NCI-H2087 = tested on: NCI-H2087
In short: as §1

HCC-366 = tested on: HCC-366
In short: as §1

ABC-1 = tested on: ABC-1
In short: as §1

NCI-H647 = tested on: NCI-H647
In short: as §1

NCI-H2023 = tested on: NCI-H2023
In short: as §1

NCI-H2085 = tested on: NCI-H2085
In short: as §1

Work on `Nc1cccc2c1CN(C1CCC(=O)NC1=O)C2=O` (stereo not given) [Lenalidomide] + N=C(N)NC(=N)NCCc1ccccc1 [Phenformin] (partner 250 µM) yielded a relative viability (HCC-44; first compound 0.253 µM) of 0.272, a relative viability (HCC-44; first compound 2.53 µM) of 0.184 and a relative viability (HCC-44; first compound 8 µM) of 0.216. The relative viability (NCI-H1651; first compound 0.253 µM) was 0.301, the relative viability (NCI-H1651; first compound 0.8 µM) was 0.351 and the relative viability (NCI-H1651; first compound 2.53 µM) was 0.493. For the same molecule, the relative viability (NCI-H1651; first compound 8 µM) was 0.337, the relative viability (PC-3 [JPC-3]; first compound 0.253 µM) was 0.482 and the relative viability (PC-3 [JPC-3]; first compound 0.8 µM) was 0.432. It also gave a relative viability (PC-3 [JPC-3]; first compound 2.53 µM) of 0.502, a relative viability (PC-3 [JPC-3]; first compound 8 µM) of 0.511 and a relative viability (LOU-NH91; first compound 0.253 µM) of 0.681. For the same molecule, the relative viability (LOU-NH91; first compound 0.8 µM) was 0.584, the relative viability (LOU-NH91; first compound 2.53 µM) was 0.75 and the relative viability (LOU-NH91; first compound 8 µM) was 0.491. It also gave a relative viability (SK-LU-1; first compound 0.253 µM) of 0.539, a relative viability (SK-LU-1; first compound 0.8 µM) of 0.595 and a relative viability (SK-LU-1; first compound 2.53 µM) of 0.693. For the same molecule, the relative viability (SK-LU-1; first compound 8 µM) was 0.472, the relative viability (NCI-H1944; first compound 0.253 µM) was 0.213 and the relative viability (NCI-H1944; first compound 0.8 µM) was 0.191. It also gave a relative viability (NCI-H1944; first compound 2.53 µM) of 0.223, a relative viability (NCI-H1944; first compound 8 µM) of 0.174 and a relative viability (NCI-H1437; first compound 0.253 µM) of 0.276. The relative viability (NCI-H1437; first compound 0.8 µM) was 0.248, the relative viability (NCI-H1437; first compound 2.53 µM) was 0.839 and the relative viability (NCI-H1437; first compound 8 µM) was 0.363. The relative viability (NCI-H1734; first compound 0.253 µM) was 0.39, the relative viability (NCI-H1734; first compound 0.8 µM) was 0.413 and the relative viability (NCI-H1734; first compound 2.53 µM) was 0.425. The relative viability (NCI-H1734; first compound 8 µM) was 0.34, the relative viability (NCI-H2170; first compound 0.253 µM) was 0.47 and the relative viability (NCI-H2170; first compound 0.8 µM) was 0.425. It also gave a relative viability (NCI-H2170; first compound 2.53 µM) of 0.414, a relative viability (NCI-H2170; first compound 8 µM) of 0.481 and a relative viability (201T; first compound 0.253 µM) of 0.448. It also gave a relative viability (201T; first compound 2.53 µM) of 0.444, a relative viability (201T; first compound 8 µM) of 0.404 and a relative viability (NCI-H322M; first compound 0.253 µM) of 0.801. The relative viability (NCI-H322M; first compound 0.8 µM) was 0.894, the relative viability (NCI-H322M; first compound 2.53 µM) was 0.863 and the relative viability (NCI-H322M; first compound 8 µM) was 0.846. For the same molecule, the relative viability (NCI-H596; first compound 0.253 µM) was 0.752, the relative viability (NCI-H596; first compound 2.53 µM) was 0.911 and the relative viability (NCI-H596; first compound 8 µM) was 0.635. It also gave a relative viability (LK-2; first compound 0.253 µM) of 0.575, a relative viability (LK-2; first compound 0.8 µM) of 0.262 and a relative viability (LK-2; first compound 2.53 µM) of 0.656. For the same molecule, the relative viability (LK-2; first compound 8 µM) was 0.229, the relative viability (NCI-H2228; first compound 0.253 µM) was 0.273 and the relative viability (NCI-H2228; first compound 0.8 µM) was 0.327. The relative viability (NCI-H2228; first compound 2.53 µM) was 0.27, the relative viability (NCI-H2228; first compound 8 µM) was 0.264 and the relative viability (PC-14; first compound 0.253 µM) was 0.637. For the same molecule, the relative viability (PC-14; first compound 0.8 µM) was 0.454, the relative viability (PC-14; first compound 2.53 µM) was 0.606 and the relative viability (PC-14; first compound 8 µM) was 0.548. The relative viability (HCC-78; first compound 0.253 µM) was 0.825, the relative viability (HCC-78; first compound 0.8 µM) was 0.625 and the relative viability (HCC-78; first compound 2.53 µM) was 0.909. The relative viability (HCC-78; first compound 8 µM) was 0.448, the relative viability (NCI-H2087; first compound 0.253 µM) was 0.416 and the relative viability (NCI-H2087; first compound 0.8 µM) was 0.372. The relative viability (NCI-H2087; first compound 2.53 µM) was 0.505, the relative viability (NCI-H2087; first compound 8 µM) was 0.477 and the relative viability (HCC-366; first compound 0.253 µM) was 0.564. The relative viability (HCC-366; first compound 0.8 µM) was 0.547, the relative viability (HCC-366; first compound 2.53 µM) was 0.691 and the relative viability (HCC-366; first compound 8 µM) was 0.548. For the same molecule, the relative viability (ABC-1; first compound 0.253 µM) was 0.209, the relative viability (ABC-1; first compound 0.8 µM) was 0.216 and the relative viability (ABC-1; first compound 2.53 µM) was 0.27. The relative viability (ABC-1; first compound 8 µM) was 0.258, the relative viability (NCI-H647; first compound 0.253 µM) was 0.438 and the relative viability (NCI-H647; first compound 0.8 µM) was 0.487. For the same molecule, the relative viability (NCI-H647; first compound 2.53 µM) was 0.703, the relative viability (NCI-H647; first compound 8 µM) was 0.581 and the relative viability (NCI-H2023; first compound 0.253 µM) was 0.405. The relative viability (NCI-H2023; first compound 0.8 µM) was 0.522, the relative viability (NCI-H2023; first compound 2.53 µM) was 0.431 and the relative viability (NCI-H2023; first compound 8 µM) was 0.407. The relative viability (NCI-H2085; first compound 0.253 µM) was 0.604, the relative viability (NCI-H2085; first compound 0.8 µM) was 0.653 and the relative viability (NCI-H2085; first compound 2.53 µM) was 0.827. It also gave a relative viability (NCI-H2085; first compound 8 µM) of 0.562.
